Square brackets hold non-standard residues; d marks the D form. Ends that are not written are not given here. Met(O) = CS(=O)CC[C@H](N)C(=O)O; SeMet = C[Se]CC[C@H](N)C(=O)O; Nle = CCCC[C@H](N)C(=O)O

Experiment [1] addresses T1, human JMJD7 (Homo sapiens, UniProt P0C870).
T1 construct: human JMJD7 (residues 1–316) with an N‐terminal His6‐tag; His6 (N); made in house; host or cells: Escherichia coli Rosetta (DE3)
As to the kind of experiment: LC-MS assay of JMJD7-catalyzed hydroxylation/oxidation of DRG1 peptides. The class given is biochemical. As to conditions: for degree of oxidation (+16 Da) of cysteine/methionine analog peptides by JMJD7 / extent of hydroxylation by JMJD7 at higher 2OG concentration: 2 μM JMJD7, 10 μM peptide; for extent of hydroxylation by JMJD7 at higher 2OG concentration: 20 μM 2OG, pH 7.5, 2 h incubation; for extent of hydroxylation (+16 Da) by JMJD7: standard conditions: 2 μM JMJD7, 10 μM DRG1 peptide, room temperature; for fate of the JMJD7 C3-hydroxylation product: 2 h. The protocol: Initial assays were carried out by incubation of purified recombinant (Markolovic et al., [2018]) human JMJD7 (2 μM) in the presence of a DRG1 derived peptide (10 μM), 2OG (10 μM), ferrous ammonium sulfate (FAS, 10 μM), and L‐ascorbate (LAA, 100 μM) in Tris buffer at pH 7.5 for 2 h at room temperature. Potential conversion to a hydroxylated product (+16 Da mass shift) was monitored by liquid‐chromatography‐mass‐spectrometry (LC–MS). […] The assay results also implied that DRG1‐Orn was hydroxylated, but to a lower extent (~21%) than DRG1‐Lys. […] The alcohol‐containing peptide hydroxynorleucine (DRG1‐HNle), was hydroxylated at relatively low levels (~24%), implying that H‐bonding interactions and positive charge of the N^ɛ‐amino group of lysine are important for efficient binding and catalysis, but that a neutral alcohol can still be accommodated at the active site (Figure 3f) (Markolovic et al., [2018]).
All reagents were procured from Sigma Aldrich. 2‐Oxoglutarate (2OG, 10 mM) and L‐ascorbic acid (LAA, 50 mM) solutions were prepared freshly by dissolving the solids in deionized water. Ferrous ammonium sulfate (FAS) solution was prepared freshly by dissolving FAS at 400 mM in 20 mM HCl with subsequent dilution to 1 mM using deionized water. JMJD7 assays using DRG1 (16–40) based peptides were performed with the following conditions: (i) 2 or 5 μM JMJD7, 10 μM DRG1 peptide, 100 μM LAA, 10 μM FAS, 10 μM 2OG in mM 50 Tris‐buffer (pH 7.5), (ii) 2 μM JMJD7, 10 μM DRG1 peptide, 100 μM LAA, 10 μM FAS, 20 μM 2OG in mM 50 Tris‐buffer (pH 7.5). Reactions were initiated by addition of enzyme to the cosubstrate/substrate solution in a final reaction volume of 50 μL with 2 h incubation at room temperature. A positive control reaction containing enzyme and a validated peptide substrate was included in all screening studies. After 2 h, reactions were stopped by addition of 5 μL of 10% (v/v) LC–MS grade formic acid (Fisher Scientific) and transferred to a 96 well plate (Agilent). Intact mass peptide analysis was performed by LC–MS using an Agilent 1290 infinity II LC system equipped with an Agilent 1290 multisampler and an Agilent 1290 high speed pump and connected to an Agilent 6550 accurate mass iFunnel quadrupole time of flight (Q‐TOF) mass spectrometer. The reaction mixture (4 μL) was injected and loaded onto a ZORBAX RRHD Eclipse Plus C18 column (Agilent). Solvent A consisted of LC–MS grade water containing 0.1% (v/v) formic acid and solvent B consisted of MeCN containing 0.1% (v/v) formic acid. Peptides were separated using a step wise gradient (0 min – 95% solvent A, 1.0 min – 80% solvent A, 3.0 min – 45% solvent A, 4.0 min – 45% solvent A, 5.0 min – 0% solvent A, 6.0 min – 0% solvent A, 7.0 min – 95% solvent A). This was followed by a 3 min elution with 95% solvent A to re‐equilibrate the column. Flow rates were 0.2 mL/min. The mass spectrometer was operated in the positive ion mode with a drying gas temperature (280°C), drying gas flow rate (13 L min^−1), nebulizer pressure (40 psig), sheath gas temperature (350°C), sheath gas flow rate (12 L min^−1), capillary voltage (4000 V), nozzle voltage (1000 V). Data were analyzed using Agilent MassHunter Qualitative Analysis (Version B.07.00) software.

Experiment [2] concerns the target T1, human JMJD7. As to the kind of experiment: SPE-MS time-course and steady-state kinetics of JMJD7-catalyzed hydroxylation. The class given is biochemical. As to conditions: for k cat/K m / k cat / K m: SPE-MS, DRG1 peptide 0.1–5.0 μM, 2OG 20 μM, FAS 10 μM, LAA 100 μM, JMJD7 100 nM; for k cat: in min^-1; for K m: in µM (unit assumed). As to the method:
Having shown that introduction of γ‐thialysine and γ‐azalysine residues into DRG1 peptides generates substrates that are efficiently hydroxylated by JMJD7, giving nascent products that fragment to give formylglycine, we explored whether these two peptides could compete with the DRG1‐Lys substrate for JMJD7 catalysis. The reactions of DRG1‐Lys, DRG1‐CysNH2 and DRG1‐LysN (1.0 μM) by JMJD7 (50 nM) were investigated as a function of time using SPE‐MS assays.
To quantify the relative efficiencies of DRG1‐Lys and the substrate analog DRG1‐LysE, we carried out kinetics analyses using SPE‐MS assays as the levels of JMJD7‐catalyzed hydroxylation were sufficient for these two substrates.
JMJD7 turnover assays for kinetic studies were performed in 96‐well polypropylene assay plates with 1.0 mL total reaction volume using a series of concentrations of the DRG1 peptide (0.1–5.0 μM), 2OG (20 μM), FAS (10 μM), LAA (100 μM). Reactions were initiated by the addition of JMJD7 (100 nM). MS‐analyses were performed using a RapidFire RF 365 high‐throughput sampling robot (Agilent) attached to an iFunnel Agilent 6550 accurate mass quadrupole time‐of‐flight (Q‐TOF) mass spectrometer operated in the positive ionization mode. The RapidFire RF 365 high‐throughput sampling robot was programmed to aspirate samples from the reaction mixture at the indicated time intervals. Assay samples were loaded onto a C4 solid phase extraction (SPE) cartridge and peptides were eluted using given previous protocols (Tumber et al., [2023]). The % conversion of the hydroxylation reaction were calculated from the ion chromatogram data by integrating peak areas using RapidFire Integrator 4.3.0 software (Agilent).

The mark [3] stands for this setting: 10 μM 2OG, 10 μM FAS, 100 μM LAA.
Where [4] appears, read: 1.0 μM peptide, 50 nM JMJD7, SPE-MS time-course.
Setting [5] is: 10 μM 2OG, 10 μM FAS, 100 μM LAA, Tris pH 7.5, 2 h.
Where [6] appears, read: standard conditions: 2 μM JMJD7, 10 μM peptide, 10 μM 2OG.

T1 sequence (P0C870 whole entry, the tested form may be a part): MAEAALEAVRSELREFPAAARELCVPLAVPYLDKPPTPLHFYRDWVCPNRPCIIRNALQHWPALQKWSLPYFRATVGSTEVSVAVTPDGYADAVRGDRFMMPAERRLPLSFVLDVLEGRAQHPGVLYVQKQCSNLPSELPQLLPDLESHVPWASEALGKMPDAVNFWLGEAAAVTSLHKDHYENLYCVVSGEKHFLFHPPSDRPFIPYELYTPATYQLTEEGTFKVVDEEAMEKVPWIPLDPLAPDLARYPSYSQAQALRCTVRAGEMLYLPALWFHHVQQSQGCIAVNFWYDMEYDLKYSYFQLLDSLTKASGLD

As to “ARTQKN[SeMet]ATAHHLGLLKARLAKLRR [DRG1‐SeMet, 25-mer DRG1 (16–40) peptide with SeMet at position 22]”, the “degree of oxidation (+16 Da) of cysteine/methionine analog peptides by JMJD7” value in experiment [1] (setting [3]) is on record as “showed no evidence for oxidation”.
Regarding “ARTQKNH[Nle]ATAHHLGLLKARLAKLRR [DRG1‐HNle, 25-mer DRG1 (16–40) peptide with hydroxynorleucine at position 22]”, in experiment [2] (setting [4]), the “relative rate / turnover in the time-course” value (“relative rate / turnover” below) is “turnover was low”. The “extent of hydroxylation by JMJD7 at higher 2OG concentration” value (from here on “extent of hydroxylation by JMJD7”) in experiment [1] (10 μM FAS, 100 μM LAA) was ~ 56%. Besides, the “extent of hydroxylation (+16 Da) by JMJD7” value (“extent … (+16 Da) by JMJD7” for short) in experiment [1] (setting [5]) is listed as ~ 24%.
In the case of “ARTQKNmeOhSerATAHHLGLLKARLAKLRR [DRG1‐meOhSer, 25-mer DRG1 (16–40) peptide with meOhSer at position 22]”, in experiment [1] (setting [3]), the “degree of oxidation (+16 Da) of cysteine/methionine analog peptides by JMJD7” value is on record as “showed no evidence for oxidation”.
As for “ARTQKNhLysATAHHLGLLKARLAKLRR [DRG1‐hLys, 25-mer DRG1 (16–40) peptide with hLys at position 22]”, in experiment [1] (10 μM FAS, 100 μM LAA), the “extent of hydroxylation by JMJD7” value is listed as ~ 5%. For the same substance, the “extent … (+16 Da) by JMJD7” value in experiment [1] (setting [5]) was “did not undergo hydroxylation within detection limits”.
As to “ARTQKNAhpATAHHLGLLKARLAKLRR [DRG1‐Ahp, 25-mer DRG1 (16–40) peptide with Ahp at position 22]”, the “extent of hydroxylation by JMJD7” value in experiment [1] (10 μM FAS, 100 μM LAA) is on record as “did not manifest evidence for hydroxylation”.
As for “ARTQKNLysEATAHHLGLLKARLAKLRR [DRG1‐LysE, 25-mer DRG1 (16–40) peptide with (E)-dehydrolysine at position 22]”, in experiment [2], the “k cat/K m” value is 133000 M⁻¹ s⁻¹, the k cat turned out to be 24.7 ± 0.36 and the K m is on record as 3.1 ± 0.81. Moreover, in experiment [1] (setting [5]), the “extent … (+16 Da) by JMJD7” value is reported as 90%.
Regarding “ARTQKNCysMeATAHHLGLLKARLAKLRR [DRG1‐CysMe, 25-mer DRG1 (16–40) peptide with CysMe at position 22]”, the “degree of oxidation (+16 Da) of cysteine/methionine analog peptides by JMJD7” value in experiment [1] (setting [3]) is listed as “oxidized relatively efficiently”.
“ARTQKNLysATAHHLGLLKARLAKLRR [DRG1‐Lys, 25-mer DRG1 fragment peptide (residues 16–40), C-terminal amide, Lys at position 22; JMJD7 substrate, reference compound]”: the “hydroxylation within 9 min” value in experiment [2] (1.0 μM peptide, 50 nM JMJD7, SPE-MS time-course, 9 min) is ~ 90%. In addition, in experiment [2], the “k cat/K m” value turned out to be 155000 M⁻¹ s⁻¹, the k cat is on record as 13.0 ± 0.36 and the K m stood at 1.4 ± 0.59. For the same substance, the “substrate inhibition of JMJD7” value in experiment [2] (increased substrate concentrations, 100 nM JMJD7, 20 μM 2OG, 10 μM FAS, 100 μM LAA, pH 7.5) is recorded as “substrate inhibition of JMJD7 was observed”. Besides, in experiment [1] (10 μM FAS, 100 μM LAA), the “extent of hydroxylation by JMJD7” value is ~ 98%. Besides, the “extent … (+16 Da) by JMJD7” value in experiment [1] (setting [5]) was ~ 78%.
Turning to “ARTQKNCysNHmeATAHHLGLLKARLAKLRR [DRG1‐CysNHMe, 25-mer DRG1 (16–40) peptide with γ-methylthialysine at position 22]”, the “possibly stable hemithioacetal product detected by MS” value in experiment [1] (standard conditions: 2 μM JMJD7, 10 μM peptide, 10 μM 2OG, 10 μM FAS, 100 μM LAA, Tris pH 7.5, 2 h) was 12%. Further, the “fate of the JMJD7 C3-hydroxylation product” value in experiment [1] (setting [6]) is “fragmentation to form DRG1‐formylglycine and its hydrated products”.
As for “ARTQKND-LysATAHHLGLLKARLAKLRR [DRG1‐D‐Lys, 25-mer DRG1 (16–40) peptide with epimeric D-lysine at position 22]”, in experiment [1] (10 μM FAS, 100 μM LAA), the “extent of hydroxylation by JMJD7” value is on record as ~ 6%. Besides, in experiment [1] (setting [5]), the “extent … (+16 Da) by JMJD7” value is recorded as “not hydroxylated within detection limits”.
Turning to “ARTQKNhMetATAHHLGLLKARLAKLRR [DRG1‐hMet, 25-mer DRG1 (16–40) peptide with homomethionine at position 22]”, the “degree of oxidation (+16 Da) of cysteine/methionine analog peptides by JMJD7” value in experiment [1] (setting [3]) is recorded as ~ 89%.
“ARTQKNLysMeATAHHLGLLKARLAKLRR [DRG1‐LysMe, 25-mer DRG1 (16–40) peptide with LysMe at position 22]”: the “extent of hydroxylation by JMJD7” value in experiment [1] (10 μM FAS, 100 μM LAA) is ~ 7%.
For the substance ARTQKNMetATAHHLGLLKARLAKLRR [DRG1‐Met], the “relative rate / turnover” value in experiment [2] (setting [4]) was “turnover appeared to be low”. Besides, the “degree of oxidation (+16 Da) of cysteine/methionine analog peptides by JMJD7” value in experiment [1] (setting [3]) is ~ 86%.
Regarding “ARTQKNnArgATAHHLGLLKARLAKLRR [DRG1‐nArg, 25-mer DRG1 (16–40) peptide with nArg at position 22]”, the “extent of hydroxylation by JMJD7” value in experiment [1] (10 μM FAS, 100 μM LAA) was “did not manifest evidence for hydroxylation”.
On to “ARTQKN[Met(O)]ATAHHLGLLKARLAKLRR [DRG1‐MetO]”, for which, in experiment [1] (setting [3]), the “degree of oxidation (+16 Da) of cysteine/methionine analog peptides by JMJD7” value is “showed no evidence for oxidation”.
As for “ARTQKNhSerATAHHLGLLKARLAKLRR [DRG1‐hSer, 25-mer DRG1 (16–40) peptide with hSer at position 22]”, the “degree of oxidation (+16 Da) of cysteine/methionine analog peptides by JMJD7” value in experiment [1] (setting [3]) is given as “did also not undergo oxidation”.
For “ARTQKNLysNATAHHLGLLKARLAKLRR [DRG1‐LysN, 25-mer DRG1 (16–40) peptide with γ-azalysine at position 22]”, in experiment [2] (setting [4]), the “relative rate / turnover” value was “oxidized more slowly than DRG1‐CysNH2”. The “fate of the JMJD7 C3-hydroxylation product” value in experiment [1] (setting [6]) is “fragmentation to form DRG1‐formylglycine and its hydrated products”.
